Assays:
[1] = tested on: male CF-1 mice; test: Animal study with pure trans- and cis-stilbene glycoside in high fat diet induced male CF-1 mice; type: in vivo; conditions: for serum glucose level / GTT: rise in blood glucose level / effect on glucose intolerance / serum insulin levels: 0.01% in drinking water; for serum glucose level: HFD for 12 weeks, FIG. 12; for GTT: rise in blood glucose level / effect on glucose intolerance / serum insulin levels: HFD 12 weeks; for GTT: rise in blood glucose level / effect on glucose intolerance: intraperitoneal glucose; for serum insulin levels: vs HF group
From the text: Male CF-1 mice were selected as the model for type 2 diabetes. The mice were kept on Western HFD for 12 weeks and were divided into five groups with 10 each. Group I: Normal control which had free access to drinking water and normal Chow; Group II: Diabetic control which had free access to drinking water and Western HFD; Group III: Treatment group which had free access to drinking water with 0.01% of pure trans-stilbene glycoside and HFD; Group IV: Treatment group which had free access to drinking water with 0.01% of pure cis-stilbene glycoside and Western HFD. Group V: […] Body weight, food and water uptake of the mice were taken on a regular basis. After 12 weeks, all the experimental mice were sacrificed. Body weight, blood glucose and blood insulin levels were evaluated as described before. Glucose tolerance test was also carried out at the end of the study.

[2] = tested on: phosphoenolpyruvate carboxykinase (PEPCK) mRNA expression; test: PEPCK assay (qPCR of Dex-cAMP induced PEPCK mRNA) in HepG2 cells; type: cell-based; conditions: for concentration dependence of PEPCK suppression: 30 μM vs 100 μM; for reduction of PEPCK mRNA compared to Dex/cAMP group: comparative Ct method; for suppression of Dex/cAMP-induced up-regulation of PEPCK transcription: normalized with β-actin, FIG. 13A
Procedure: The HepG2 cells were plated in 24-well tissue culture plates and were grown to near confluence in Dulbecco's modified Eagle's medium containing 2.5% (vol/vol) newborn calf serum and 2.5% (vol/vol) fetal calf serum. […]
Total RNA was extracted from HepG2 cells using Trizol reagent, following the manufacturer's instructions. RNA was quantified spectrophotometrically by absorbance measurements at 260 and 280 nm. Quality of RNA was assessed by separation in gel electrophoresis. RNA was then treated with Dnasel (Invitrogen), following the manufacturer's guidelines, to remove any traces of DNA contamination. The cDNAs were synthesized with […] of RNA for each sample, using Stratascript reverse transcriptase (Stratagene, La Jolla, Calif.), following the manufacturer's protocol. The synthesized cDNAs were diluted fourfold. Five microliters of each of these diluted samples was used for PCR reactions of 25 ηL final volume. The other components of the PCR reactions were 0.5 ηL of 6 ηM gene-specific primers and 12.5 ηL of Brilliant SYBR Green PCR master mix (containing green jump-start Taq ready mix). ROX (Stratagene, La Jolla, Calif.) was used as a reference dye. The primers were selected using the Primer Express version 2.0 software (Applied Biosystems, Foster City, Calif.). These primers generated a 76-bp product from β-actin mRNA. The intron-spanning forward primer was selected to cover the exon 9-10 boundary. The reverse primer was selected from exon 10. The oligos were synthesized by IDT. These primers generated a 74-bp product from PEPCK mRNA and a 207-bp product from genomic DNA.
Quantitative PCR (qPCR) amplifications were performed on an MX3000p system (Stratagene, La Jolla, Calif.) using one cycle at 50° C. for 2 min and one cycle of 95° C. for 10 min, followed by 40 cycles of 15 s at 95° C. and 1 min at 60° C. The dissociation curve was completed with one cycle of 1 min at 95° C., 30 s at 55° C., and 30 s at 95° C. Non-RT control and no-template control were included in each experiment as quality control steps.
PEPCK mRNA expressions were analyzed using the ΔΔCT method and normalized with respect to the expression of the β-actin house keeping gene. The ΔΔCT Values obtained from these methods reflect the relative mRNA quantities for a specific gene in response to a treatment as relative to a calibrator. The Dex-cAMP treatment (positive control) served as the calibrator sample in this study. The PECPK gene expression of the calibrator sample was assigned to a value of 1.0. A value of <1.0 indicates transcriptional down-regulation (inhibition of gene expression) relative to the calibrator. Amplification of specific transcripts was further confirmed by obtaining melting curve profiles. All samples were run in duplicate.

[3] = tested on: female KK CgAy/J mice; test: Anti-diabetic effect of stilbene glycoside in female KK CgAy/J mice incl. glucose and insulin tolerance tests; type: in vivo; conditions: for blood / serum glucose level vs diabetic control: stilbene glycoside 0.075% in drinking water, metformin 300 mg/kg; for insulin tolerance test: level of glucose: 30 minutes after insulin injection
From the text: Female KK CgAy/J mice were also utilized in this experiment and handled with the same protocol as in 1.2.3. The mice were divided into four groups with 10 each, and fed with Western HFD. […] Body weight, food and water uptake of the mice were taken on a regular basis. After 12 weeks, all the experimental mice were sacrificed. Similar measurements were taken to the previous experiment with PM extract. Before sacrifice, all the experimental mice were subjected to glucose and insulin tolerance tests. For glucose tolerance test, mice were fasted overnight and injected with glucose solution at 1 g/10 ml and 10 ml/kg body weight. The change in blood glucose level was monitored during the following two hours. For insulin tolerance test, mice were fasted for 5 hours and injected with insulin solution at 1 u/ml and 10 ml/kg body weight. The change in blood glucose level was monitored during the following two hours.

[4] = rats, cited from earlier work
[5] = cited from earlier work
[6] = compared with resveratrol; cited from earlier work
[7] = tested on: female KK mice; test: Animal study with trans- and cis-stilbene glycoside extracts in HFD-induced female KK mice; type: in vivo; conditions: 18 weeks HFD, solutions in drinking water
Procedure: Female KK mice were purchased from Jackson labs (Barr Harbor, Me.) and were housed in stainless steel wire-bottomed cages and acclimatized under laboratory conditions (19-23° C., humidity 60%, 12 h light/dark cycle). Normal control mice (n=10) were fed with control diet which was normal Chow 5001 from LabDiet (St. Louis, Mo.) and was composed of 28.5 kcal % protein, 58 kcal % carbohydrate and 13.5 kcal % fat. Diabetic control mice (n=10) were induced with HFD (Research Diets, New Brunswick, N.J.) composed of 20 kcal % protein, 20 kcal % carbohydrate, and 60 kcal % fat (from butter) for 18 weeks. Three solutions were administered to mice (n=10 each) on HFD ad libitum and the compositions are shown below. Solution 1: pure trans-stilbene glycoside (0.05% in drinking water), HPLC chromatogram in FIG. 3.2 (A); Solution 2: 60% ethanol extract of PM root powders, obtained according to procedure in Section 1.2.1 (proportion of cis-stilbene glycoside to trans-stilbene glycoside is approximately 1:20, 0.075% in drinking water), HPLC chromatogram in FIG. 3.2 (B); Solutions 3: obtained from exposing solution 2 under UV-light overnight (proportion of cis-stilbene glycoside to trans-stilbene glycoside is approximately 2:3, 0.075% in drinking water), HPLC chromatogram in FIG. 3.2 (C). After 18 weeks, body weight and blood glucose of all mice were measured.

Cn1c(=O)c2c(ncn2C)n(C)c1=O [caffeine, reference compound]
serum glucose level [1]: significantly decrease

OC[C@H]1O[C@@H](Oc2c(O)cc(O)cc2/C=C/c2ccc(O)cc2)[C@H](O)[C@@H](O)[C@@H]1O [cis-stilbene glycoside, 2,3,5,4-tetrahydroxystilbene 2-O-β-glucopyranoside]
GTT: rise in blood glucose level / effect on glucose intolerance [1]: greatly suppressed
serum insulin levels [1]: significantly lowered
serum glucose level [1]: significantly decrease
Calculated HOMA-IR lower than that in trans-stilbene glycoside group ([1]; cis group relative to trans group): 102.7%
concentration dependence of PEPCK suppression [2]: suppressed more efficiently at 30 μM than at 100 μM
reduction of PEPCK mRNA compared to Dex/cAMP group ([2]; 30 μM): 61.7%
suppression of Dex/cAMP-induced up-regulation of PEPCK transcription [2]: effectively suppress

CN(C)C(=N)N=C(N)N [metformin, reference compound]
blood / serum glucose level vs diabetic control ([3]; 12 weeks HFD, FIG. 6): effectively brought down
insulin tolerance test: level of glucose ([3]; FIG. 7B): higher level of glucose
insulin tolerance test: blood glucose ([3]; two hours after insulin injection, FIG. 7B): dropped to a lower level than that of stilbene glycoside group

OC[C@H]1O[C@@H](Oc2c(O)cc(O)cc2/C=C/c2ccc(O)cc2)[C@H](O)[C@@H](O)[C@@H]1O [stilbene glycoside, 2,3,5,4-tetrahydroxystilbene 2-O-β-glucopyranoside]
serum insulin level vs diabetic control ([3]; 12 weeks HFD, 0.075% in drinking water, FIG. 6): elevated
blood / serum glucose level vs diabetic control ([3]; 12 weeks HFD, FIG. 6): elevated
glucose tolerance test: blood glucose level ([3]; 30 minutes after glucose injection (1 g/kg), FIG. 7A): the most elevated
insulin tolerance test: level of glucose ([3]; FIG. 7B): higher level of glucose
glucose tolerance test: blood glucose ([3]; at the end of the test (two hours), FIG. 7A): remained much higher than normal control and metformin groups
glucose tolerance ([3]; overall finding of glucose tolerance test): glucose intolerant
time of distribution ([4]; single intravenous or oral administration): ≤ 30 min
Total recovery of unchanged stilbene glycoside in bile ([4]; within 24 hr): 0.041%
Total recovery of unchanged stilbene glycoside in feces ([4]; within 24 hr): 0.06%
amount of unchanged stilbene glycoside excreted in the urine ([4]; within 24 hr): lower than Lower Limit of Quantification (LLOQ)
Absolute bioavailability [4]: 40%
form of excretion ([4]; metabolites including monoglucuronide and the deglycosidated form): excreted mainly in the forms of metabolites
solubility [5]: soluble in water, methanol and ethanol
antioxidant activity [6]: higher antioxidant activity than resveratrol

OC[C@H]1O[C@@H](Oc2c(O)cc(O)cc2/C=C/c2ccc(O)cc2)[C@H](O)[C@@H](O)[C@@H]1O [trans-stilbene glycoside, 2,3,5,4-tetrahydroxystilbene 2-O-β-glucopyranoside]
high fat induced body weight gain compared to diabetic control [7]: none of the three solutions significantly decreased
GTT: rise in blood glucose level / effect on glucose intolerance [1]: absent
serum insulin levels [1]: significantly lowered
serum glucose level [1]: significantly decrease
concentration dependence of PEPCK suppression [2]: higher concentration resulted in lower level of PEPCK transcription
reduction of PEPCK mRNA compared to Dex/cAMP group ([2]; 100 μM): 53.3%
suppression of Dex/cAMP-induced up-regulation of PEPCK transcription [2]: effectively suppress

Source: patent publication US10905703B2, “Preparation of a composition containing stilbene glycoside” (priority 2015, dated 2021)
